The source of these data is patent US20210179543A1, “CALPAIN-2 SELECTIVE INHIBITOR COMPOUNDS FOR TREATMENT OF GLAUCOMA” (Western University of Health Sciences, priority 2018, published 2021).

Molecules are shown by their SMILES. pIC50, pKi: −log10 of the molar value. Some results are limits rather than exact numbers.

Series [1] concerns the target T1, calpain-2 (Homo sapiens, UniProt P17655).
T1 sequence (P17655 1-700): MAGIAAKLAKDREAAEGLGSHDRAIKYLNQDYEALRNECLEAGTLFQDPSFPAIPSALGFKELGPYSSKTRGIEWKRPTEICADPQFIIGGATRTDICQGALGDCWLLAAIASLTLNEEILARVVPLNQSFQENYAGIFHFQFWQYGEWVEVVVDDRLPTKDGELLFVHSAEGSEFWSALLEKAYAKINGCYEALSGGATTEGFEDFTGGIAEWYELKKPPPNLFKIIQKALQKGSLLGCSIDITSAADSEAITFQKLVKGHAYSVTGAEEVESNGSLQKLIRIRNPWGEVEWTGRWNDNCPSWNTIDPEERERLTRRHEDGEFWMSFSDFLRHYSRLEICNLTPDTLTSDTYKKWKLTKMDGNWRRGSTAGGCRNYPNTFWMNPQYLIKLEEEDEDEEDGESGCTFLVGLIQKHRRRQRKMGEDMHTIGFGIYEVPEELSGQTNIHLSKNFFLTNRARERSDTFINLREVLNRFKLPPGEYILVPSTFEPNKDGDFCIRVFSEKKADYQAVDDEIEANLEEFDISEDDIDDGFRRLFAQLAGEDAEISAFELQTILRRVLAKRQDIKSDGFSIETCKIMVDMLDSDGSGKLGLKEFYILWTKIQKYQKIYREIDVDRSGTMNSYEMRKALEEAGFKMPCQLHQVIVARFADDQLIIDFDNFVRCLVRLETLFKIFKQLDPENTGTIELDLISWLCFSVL
T1 sequence (P04632 1-268 partner): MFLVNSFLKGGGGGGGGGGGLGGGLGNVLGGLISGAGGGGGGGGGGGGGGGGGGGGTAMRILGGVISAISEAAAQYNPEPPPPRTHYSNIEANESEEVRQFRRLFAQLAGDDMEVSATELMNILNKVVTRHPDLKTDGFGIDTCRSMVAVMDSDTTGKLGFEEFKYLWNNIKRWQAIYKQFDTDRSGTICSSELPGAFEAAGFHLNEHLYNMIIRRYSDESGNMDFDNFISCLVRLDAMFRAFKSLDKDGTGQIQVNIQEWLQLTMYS
The series is described as follows: IC50 on calpain-1 and calpain-2 activities (Wang et al., 2014), selectivity. In kind it is biochemical. The protocol: These compounds can be calpain-2 selective inhibitors. […] IC50 values for NA115 on the activity of calpain-1 and calpain-2 activities were measured (Wang et al., 2014). […] The selectivity of NA117 was 24.1. [0016] Pharmaceutical compositions of the invention comprise NA115 and NA117, and a pharmaceutically acceptable excipient. Excipients used in pharmaceutical composition of the invention are safe and provide the appropriate delivery for the desired route of administration, of an effective amount of NA115 and NA117.

Series [2] has as its system calpain-2 activation in the retina. The series is described as follows: acute glaucoma model (increased IOP), SBDP immunohistochemistry in retina. In kind it is in vivo. As to conditions: mouse. The protocol:
Immunohistochemistry for SBDP (green) in sections from a sham animal (surgery only), animal subjected to increased IOP and injected intraocularly with vehicle (10% DMSO in PBS, 1 μl; IOP)), increased IOP and injected with NA115 (40 μM, 100 μM, and 200 μM). Blue staining represents cell nuclear staining with the retinal ganglion cells on the upper layer.
For each image, mean fluorescence intensity (MFI) is analyzed in the inner plexiform layer (layer between the 2 cell body layers in FIG. 1). Three frozen sections (20 μm-thick), cut through the optic disc of each eye, were collected and stained with SBDP antibody. In each section, three images were captured under 60× objective of a confocal microscope (LSM-880). For each image, MFI (mean fluorescence intensities) in the IPL layer were measured in ImageJ and averaged. N=2 animals/group.
Same experimental procedure as in FIGS. 1-4. NA117 was injectedintraocularly at a concentration of 200 μM). One-way ANOVA followed by Bonferroni test. *p<0.05, **p<0.01. Results are means±SEM of 2 animals. Scale bar=20 microns.
(§1) The model of acute glaucoma previously reported in Wang et al. (2016) was used. In this model, intraocular pressure (IOP) was increased to 110 mm Hg for 1 h with the mouse under anesthesia. Two h later mice received an intraocular injection of various concentrations of a calpain-2 inhibitor and were returned to their home cages. […]

Series [3] has as its target T1, calpain-2. Description: in vitro calpain assay with succinic-Leu-Tyr-AMC, calpain-2. In kind it is biochemical. As to conditions: for pIC50 / pKi: human calpain-2, succinic-Leu-Tyr-AMC. The protocol:
(§2) NA115A (Compound 15 (S above) was introduced at various concentrations into an in vitro mix comprising succinic-Leu-Tyr-AMC and human calpain-1 or calpain-2 (Sasaki et al, 1984), and the kinetics of the […] of fluorescence were determined for each of the calpains. The Kis of NA115, NA115A and NA115B for calpain-1 and calpain-2 are shown in Tables 1-2 below. The efficacy of NA115 against calpain-1 or calpain-2 appears to be only in NA115A.

Series [4] has as its target T2, human calpain-1 (Homo sapiens, UniProt P07384).
T2 sequence (P07384 1-714): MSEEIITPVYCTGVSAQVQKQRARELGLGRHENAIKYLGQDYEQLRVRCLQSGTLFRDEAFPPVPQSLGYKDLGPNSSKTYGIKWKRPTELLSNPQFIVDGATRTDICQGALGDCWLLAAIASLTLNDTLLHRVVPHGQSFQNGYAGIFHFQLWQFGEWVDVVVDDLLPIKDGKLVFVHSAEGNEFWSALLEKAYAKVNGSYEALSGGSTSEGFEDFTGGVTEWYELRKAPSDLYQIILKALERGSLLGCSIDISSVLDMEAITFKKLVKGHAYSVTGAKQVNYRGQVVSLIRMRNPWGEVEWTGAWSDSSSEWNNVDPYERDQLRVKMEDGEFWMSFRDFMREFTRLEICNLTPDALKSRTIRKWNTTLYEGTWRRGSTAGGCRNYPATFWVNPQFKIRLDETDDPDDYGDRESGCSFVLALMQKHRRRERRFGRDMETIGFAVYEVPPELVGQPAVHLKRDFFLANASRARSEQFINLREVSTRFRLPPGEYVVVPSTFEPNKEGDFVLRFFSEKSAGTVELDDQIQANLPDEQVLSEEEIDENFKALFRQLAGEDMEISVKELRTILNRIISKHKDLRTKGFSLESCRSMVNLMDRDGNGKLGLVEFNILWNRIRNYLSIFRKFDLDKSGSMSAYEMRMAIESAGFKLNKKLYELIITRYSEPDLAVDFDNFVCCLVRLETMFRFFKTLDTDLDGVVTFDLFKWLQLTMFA
T2 sequence (P04632 1-268 partner): T1 sequence (P04632 1-268 partner)
The series is described as follows: in vitro calpain assay with succinic-Leu-Tyr-AMC, calpain-1. In kind it is biochemical. As to conditions: human calpain-1, succinic-Leu-Tyr-AMC. The protocol: as §2

Series [5] is described as follows: epimerization in pig vitreous fluid, aliquots tested in the calpain-2 assay. As to conditions: 35° C.; for change of inhibitory effect in the calpain-2 assay after incubation: 2 μM, various periods of time. In kind it is in vitro ADME. The procedure: NA115A or NA115B (2 μM) was incubated with pig vitreous fluid for various periods of time at 35° C. Aliquots were then tested in the calpain-2 assay. […] (FIGS. 9A-9D).

The test system of series [6] is retinal ganglion cells. Description: acute glaucoma model (increased IOP), beta-III tubulin staining of retinal wholemounts. In kind it is in vivo. As to conditions: mouse, 200 μM, 1 μl intraocular 2 h after IOP elevation, 3 days after increased IOP. The procedure: Immunohistochemistry is shown with staining in the peripheral area of retinal wholemounts, with anti-beta-III tubulin, a marker for retinal ganglion cells, 3 days after increased IOP in a sham animal, an animal subjected to increased IOP and injected with vehicle (10% DMSO in PBS, 1 μl; IOP)) and an animal subjected to increased IOP and injected with NA115 (200 μM). Scale bar=100 microns.
Vehicle (10% DMSO in PBS, 1 μl) or NA115 (200 μM, 1 μl) was injected 2 h after IOP elevation. Retinal whole mounts were prepared 3 days after the surgery. One-way ANOVA followed by Bonferroni test. ****p<0.0001, **p<0.01. N=8 for Sham. N=7 for IOP, IOP+NA115.
as §1, with “cages. They were sacrificed 4 h later for determination of calpain activity using immunohistochemistry to stain for the spectrin breakdown product (SBDP) selectively generated by calpain-mediated truncation of spectrin. Previous studies (Wang et al., 2016) have shown that, at this time-point calpain activity represents calpain-2 activity.” for “cages.”

Series [7] in a line: plasma stability in mouse plasma. In kind it is in vitro ADME. As to conditions: mouse plasma; solubilized in 2-Hydroxypropyl)-beta-cyclodextrin or captisol, depending on the solvent. The procedure:
Stability of NA115 was evaluated with NA115 solubilized in 2-Hydroxypropyl)-beta-cyclodextrin or in captisol.
Moreover, 1 mM of the NA115 in beta-cyclodextrin was diluted 5 times in freshly prepared mouse plasma (200 μM NA115 in plasma). The mixture was incubated at 37 degree. At indicated time point, 1 μl of the mixture was added to 99 ul of calpain assay solution containing 5 mM Ca2+, 200 μM Suc-Leu-Tyr-AMC substrate and 100 nM calpain-2. Hydrolysis rate was monitored in the plate reader. As a control, 1 μl of plasma alone was subjected to calpain assay and its hydrolysis rate was set as 100% of calpain activity.

As to `CCC(NC(=O)[C@H](CC(C)C)NC(=O)CCc1ccccc1)C(=O)C(=O)NCc1cccc(OC)c1` (stereo partly drawn) [NA117, N-(3-methoxybenzyl)-3-((S)-4-methyl-2-(3-phenylpropanamido)pentanamido)-2-oxopentanamide], the “selectivity for calpain-2, ratio of IC50 calpain-1/IC50 calpain-2” value in series [1] is 24.1. In series [2] (intraocular injection 200 μM), the “inhibition of calpain activation (SBDP staining) following increased IOP” value is “also inhibits calpain activation following increased IOP”.

The term pIC50 denotes the IC50 on a negative log10 scale, so that one unit is a factor of ten. As a reminder, the pKi is the negative decadic logarithm of the Ki, by convention in mol/L. Lower therefore signals a high Ki. With `CC[C@@H](NC(=O)[C@H](CC(C)C)NC(=O)CCc1ccccc1)C(=O)C(=O)NCc1cc(F)cc(OC)c1` [NA115B], in series [3], the pIC50 was less than 5.00 and the pKi is less than 5.00. In series [4], the pIC50 was less than 5.00 and the pKi is less than 5.00. In addition, in series [5], the “change of inhibitory effect in the calpain-2 assay after incubation” value is “increased inhibitory effect” and the epimerization entry is given as “rapid epimerization”.

`CC[C@H](NC(=O)[C@H](CC(C)C)NC(=O)CCc1ccccc1)C(=O)C(=O)NCc1cc(F)cc(OC)c1` [NA115A]: in series [3], the “Ratio KiCalpain-1/KiCalpain-2” value stood at 1.5, the pIC50 was 6.71 and the negative-log Ki (pKi) is 6.91. In series [4], this compound gave a pIC50 of 6.48 and a pKi of 6.72. Also, in series [5], the “change of inhibitory effect in the calpain-2 assay after incubation” value is “rapid decrease in the inhibitory effect” and the epimerization result is recorded as “rapid epimerization”.

Broadly, the half-life is the time in which the quantity being followed falls by half. A higher half-life goes with slow decline. On to `CCC(NC(=O)[C@H](CC(C)C)NC(=O)CCc1ccccc1)C(=O)C(=O)NCc1cc(F)cc(OC)c1` (stereo partly drawn) [NA115, N-(3-fluoro-5-methoxybenzyl)-3-((S)-4-methyl-2-(3-phenylpropanamido)-pentanamido)-2-oxopentanamide], for which, in series [3], the “Ratio KiCalpain-1/KiCalpain-2” value is listed as 4.5, the pIC50 was 6.77 and the pKi was 6.99. In series [4], the pIC50 is 6.12 and the pKi was 6.33. Moreover, the “selectivity for calpain-2, ratio of IC50 calpain-1/IC50 calpain-2” value in series [1] is 31.7. Further, the “inhibition of calpain-2 activation (SBDP staining) in the retina following increased IOP” value in series [2] (intraocular injection 40 μM, 100 μM, 200 μM, 2 h after IOP elevation, sacrificed 4 h later) was “dose-dependently inhibiting calpain-2 activation in the retina following increased IOP”. Moreover, in series [6], the “protection of retinal ganglion cells (anti-beta-III tubulin positive cells) from increased IOP-induced cell death” value is “protects against retinal ganglion from increased ocular pressure-induced cell death”. Besides, the half-life at 200 μM in series [7] lay in the range of 9 to 15 h.
